These results are taken from patent US20140004201A1, “Treatment of Vascular Diseases Using Encapsulated Cells Encoding and Secreting GLP-1, or a Fragment or Variant Thereof” (Biocompatibles UK Ltd., priority 2010, published 2014).

Where no end group is shown, it is not given here.

The subject of one data set is Rin-5F cells. Briefly: Anti-apoptotic efficacy, cycloheximid induced apoptosis. It is filed as cell-based, rat. The conditions noted are these: 24 hours. As for the experimental part:
40.000 Rin-5F cells were seeded per 96 well and cultivated for 2 days in RPMI supplemented with 1% L-Glutamin and 10% fetal calf serum. […] After 24 hours cell viability is quantified using AlamarBlue.

The nature of data set [1]: In vitro human plasma stability of GLP-1 CM peptides. Format: in vitro ADME. To be noted: 20 ng/ml, 37° C., 3 hours. As for the experimental part: Synthetic GLP-1 peptides (SEQ ID NO: 1syn, SEQ ID NO: 6syn, SEQ ID NO: 7rec, SEQ ID NO: 8syn) were incubated at concentrations of 20 ng/ml with human plasma at 37° C. and 5% CO2, for 3 hours. Dipeptidylpeptidase activity of the plasma was inhibited by a DPP-IV inhibitor (#DPP4, Biotrend).

On to GLP-1(7-37)-IP2-GLP-1(7-37) [CM1], for which, in the data set with Rin-5F cells (1 nM CM1, cycloheximid, serum free, AlamarBlue), the anti-apoptotic effect entry is given as “significant anti-apoptotic effect”. For the same molecule, in the data set with Rin-5F cells (CHX 10 μg/ml and 100 μg/ml, different concentrations of CM1), the cell viability entry is “significant (p<0.01) increase of cell viability”. With “HAEGTFTSDVSSYLEGQAAKEFIAWLVKGRGRRDFPEEVAIAEELG [SEQ ID NO:8, GLP-1(7-37)-IP2]”, in data set [1], the “stability in human plasma in vitro (active GLP)” value was “significantly stabilized”.

B1: GLP-1(7-37)-IP2-RR-GLP2 (protein)
chain: HAEGTFTSDVSSYLEGQAAKEFIAWLVKGRGRRDFPEEVAIAEELGRRHADGSFSDEMSTILDNLATRDFINWLIQTKITDKK
modifications: Description of sequence SEQ ID No 7 (ID7rec, CM2) corresponds to GLP-1(7-37)-IP2-RR-GLP2, 83 aa, 9.4 kD
Consider B1, for which the “stability in human plasma in vitro (active GLP)” value in data set [1] is reported as “significantly stabilized”.
